Tested on: embryo–placenta unit
Assay: Embryo/placental growth metrics (mixed-effect models)
Type: in vivo, mouse (CD-1)
From the text: From each uterus, first, viable embryos and their matched placentas were collected in succession within a horn and immediately snap frozen ( n=2–5 per litter ), and subsequent embryos were collected for growth measurements ( n=2–11 per litter ). Additional placentas were collected and placed in 4% paraformaldehyde (PFA) for histological analysis (Block 2 only). Amniotic fluid was collected by needle aspiration from litters euthanized at E11.5 and snap frozen in liquid nitrogen. Embryo livers were collected from litters euthanized at E17.5 and snap frozen in liquid nitrogen. Dam livers were weighed, a portion of the left lateral lobe was placed in 4% PFA for histology, and another portion of the same lobe was snap frozen in liquid nitrogen. A third liver section was obtained from Block 2 dams and fixed in McDowell and Trump’s fixative for electron microscopy (EM). Gross lesions were collected when observed and placed in 4% PFA for histology. Dam kidneys were removed, a cross section was prepared from the right kidney, a longitudinal section was prepared from the left kidney, and both sections were fixed in 4% PFA for histological analysis.
Gross observations were recorded at necropsy. Embryo sex was determined by polymerase chain reaction (PCR) amplification of the Sry gene (forward, 5′-[…]-3′, and reverse, 3′-[…]-5′) using a snipped portion of tissue (TransnetYX®, Inc.). Embryos and their placentas were weighed separately as wet tissue. Images of embryos were obtained on a Leica Z16 APO imaging scope, and embryo length was measured as snout-to-rump distance using FIJI ([Schindelin et al. 2012]) and Zen 2 Blue (Zeiss).
Embryo and placental metrics were analyzed using mixed-effect models and included a priori fixed effects of treatment group and litter size and a random-effects term for the dam using the lme4 package. Embryo and placental metrics included embryo weight, embryo length, placental weight, and embryo:placenta weight ratios, a meaningful predictor of fetal birth outcomes in humans ([Hayward et al. 2016]). To account for potential introduction of random effects, the study block (Block 1 or Block 2) and experimenter handling of embryo/placental tissues (Experimenter A or Experimenter B) were included as additional random effects. Models were fit in a stepwise procedure for random effects, and final models included treatment group and litter size as fixed effects using the lmerTest package ([Kuznetsova et al. 2017]). All final models included dam as a random effect but were allowed to vary in the inclusion of experimenter and experimental block random effects based on likelihood ratio test results. Point estimates and 95% CIs were determined from the final model using the Wald method. The number of individual observations for each outcome (embryo weight, placenta weight, and embryo:placenta weight ratio) and the number of litters evaluated in the mixed-effect models are shown in Table S1.

N.O=C(O)C(F)(OC(F)(F)C(F)(F)C(F)(F)F)C(F)(F)F (centres unmarked) [GenX, ammonium 2,3,3,3-tetrafluoro-2-(heptafluoropropoxy)propanoate]
Embryo length, adjusted estimate (95% CI) (E11.5, 2 mg/kg/d): 17.6 (14.7, 20.5) mm
Embryo weight, adjusted estimate (95% CI) (E11.5, 2 mg/kg/d): 49.9 (16.7, 83.1) mg
Placental weight, adjusted estimate (95% CI) (E11.5, 2 mg/kg/d): 34.0 (0.1, 67.8) mg
Embryo length, adjusted estimate (95% CI) (E11.5, 10 mg/kg/d): 17.4 (14.5, 20.3) mm
Embryo weight, adjusted estimate (95% CI) (E11.5, 10 mg/kg/d): 45.2 (12.0, 78.3) mg
Placental weight, adjusted estimate (95% CI) (E11.5, 10 mg/kg/d): 38.4 (4.5, 72.2) mg
Embryo length, adjusted estimate (95% CI) (E17.5, 2 mg/kg/d): 32.7 (28.7, 36.6) mm
Embryo weight, adjusted estimate (95% CI) (E17.5, 2 mg/kg/d): 1369.8 (1111.3, 1628.4) mg
Placental weight, adjusted estimate (95% CI) (E17.5, 2 mg/kg/d): 137.1 (105.6, 168.6) mg
Embryo length, adjusted estimate (95% CI) (E17.5, 10 mg/kg/d): 33.8 (29.8, 37.7) mm
Embryo weight, adjusted estimate (95% CI) (E17.5, 10 mg/kg/d): 1337.0 (1077.5, 1596.4) mg
Placental weight, adjusted estimate (95% CI) (E17.5, 10 mg/kg/d): 146.3 (114.7, 177.9) mg

O=C(O)C(F)(F)C(F)(F)C(F)(F)C(F)(F)C(F)(F)C(F)(F)C(F)(F)F [PFOA, Perfluorooctanoic acid]
Embryo weight decrease relative to controls (5 mg/kg/d): 9.4%
Embryo length, adjusted estimate (95% CI) (E11.5, 1 mg/kg/d): 17.5 (14.5, 20.4) mm
Embryo weight, adjusted estimate (95% CI) (E11.5, 1 mg/kg/d): 44.7 (11.1, 78.2) mg
Embryo:Placental Weight Ratio, adjusted estimate (95% CI) (E11.5, 1 mg/kg/d): 1.19 (0.62, 1.76)
Placental weight, adjusted estimate (95% CI) (E11.5, 1 mg/kg/d): 30.5 (-3.8, 64.7) mg
Embryo length, adjusted estimate (95% CI) (E11.5, 5 mg/kg/d): 18.5 (15.6, 21.4) mm
Embryo weight, adjusted estimate (95% CI) (E11.5, 5 mg/kg/d): 45.3 (11.8, 78.7) mg
Embryo:Placental Weight Ratio, adjusted estimate (95% CI) (E11.5, 5 mg/kg/d): 1.21 (0.64, 1.77)
Placental weight, adjusted estimate (95% CI) (E11.5, 5 mg/kg/d): 31.2 (-2.9, 65.3) mg
Embryo length, adjusted estimate (95% CI) (E17.5, 1 mg/kg/d): 33.6 (29.6, 37.6) mm
Embryo weight, adjusted estimate (95% CI) (E17.5, 1 mg/kg/d): 1350.7 (1091.9, 1609.4) mg
Embryo:Placental Weight Ratio, adjusted estimate (95% CI) (E17.5, 1 mg/kg/d): 11.1 (8.0, 14.3)
Placental weight, adjusted estimate (95% CI) (E17.5, 1 mg/kg/d): 129.7 (98.2, 161.2) mg
Embryo BW lower than vehicle control embryos (mixed-effect model estimate) (E17.5, 5 mg/kg/d): 129 mg
Embryo length, adjusted estimate (95% CI) (E17.5, 5 mg/kg/d): 31.2 (27.2 35.3) mm
Embryo weight, adjusted estimate (95% CI) (E17.5, 5 mg/kg/d): 1249.5 (991.0, 1508.0) mg
Embryo:Placental Weight Ratio, adjusted estimate (95% CI) (E17.5, 5 mg/kg/d): 8.5 (5.4, 11.6)
Estimated increase in placental weight relative to controls (E17.5, 5 mg/kg/d): 21 mg
Placental weight, adjusted estimate (95% CI) (E17.5, 5 mg/kg/d): 151.9 (120.5, 183.4) mg
Shift in embryo weight (E17.5, 5 mg/kg/d): -0.129 g

Reference: PMC7064328 (Environmental Health Perspectives, 2020)
